Consider 22 compounds from patent US12331035B2, “Bicyclic compound and use thereof” (SK BIOPHARMACEUTICALS CO., LTD., priority 2019, dated 2025).

The IC50 is the concentration at which inhibition is half-maximal.

T1 sequence (O14744 2-637 limits assumed): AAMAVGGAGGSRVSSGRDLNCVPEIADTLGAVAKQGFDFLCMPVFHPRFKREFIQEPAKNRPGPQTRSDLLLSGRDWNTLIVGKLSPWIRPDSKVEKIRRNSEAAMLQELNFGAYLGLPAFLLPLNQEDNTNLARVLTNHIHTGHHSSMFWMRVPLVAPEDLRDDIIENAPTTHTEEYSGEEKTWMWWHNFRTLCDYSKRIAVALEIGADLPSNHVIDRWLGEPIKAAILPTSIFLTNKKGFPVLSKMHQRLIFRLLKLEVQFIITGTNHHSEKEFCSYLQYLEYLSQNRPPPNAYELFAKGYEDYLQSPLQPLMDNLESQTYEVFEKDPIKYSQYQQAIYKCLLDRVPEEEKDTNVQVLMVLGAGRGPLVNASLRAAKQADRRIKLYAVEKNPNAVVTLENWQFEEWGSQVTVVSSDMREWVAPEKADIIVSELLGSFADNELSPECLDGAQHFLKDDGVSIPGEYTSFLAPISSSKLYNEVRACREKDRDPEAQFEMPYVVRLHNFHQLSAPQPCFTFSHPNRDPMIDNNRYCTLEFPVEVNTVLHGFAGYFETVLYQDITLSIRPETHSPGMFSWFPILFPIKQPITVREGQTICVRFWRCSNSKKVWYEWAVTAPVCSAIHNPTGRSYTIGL
T1 sequence (Q9BQA1 2-342 partner limits assumed): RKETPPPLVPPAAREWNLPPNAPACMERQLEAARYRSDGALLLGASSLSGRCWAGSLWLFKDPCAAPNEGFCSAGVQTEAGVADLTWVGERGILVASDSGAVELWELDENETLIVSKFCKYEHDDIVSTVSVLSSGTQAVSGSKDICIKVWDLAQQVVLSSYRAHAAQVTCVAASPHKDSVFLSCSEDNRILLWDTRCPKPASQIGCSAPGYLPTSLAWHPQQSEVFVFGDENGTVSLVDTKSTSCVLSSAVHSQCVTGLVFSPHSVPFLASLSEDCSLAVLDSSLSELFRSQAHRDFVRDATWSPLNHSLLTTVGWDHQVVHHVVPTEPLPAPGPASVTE

The experiment has as its target T1, PRMT5-MEP50 enzyme complex (Homo sapiens, UniProt O14744).
T1 construct: purchased BPS Bioscience (USA) 51045
The experiment can be described thus: In vitro PRMT5 enzyme activity assay (methylation of histone H4 arginine H4R3, ELISA absorbance at 450 nm). The settings on record: S-adenosylmethionine, histone H4 peptide, 2 hours at room temperature, 8 points 10 μM to 0.128 nM. Type of experiment: biochemical. Summed up: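 Human PRMT5-MEP50 (5 μg/mL working stock) with 2 μM SAM stock on histone H4 (1-20) peptide-coated plates, compound 8-point 1:5 series from 10 μM, 2 h at room temperature. H4R3 methylation detected by antibody/HRP ELISA, absorbance 450 nm; IC50 calculated.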
In general terms: An ELISA detects its analyte on a solid surface through an enzyme-linked reagent.
Take `N#CN1CCN(c2ccc3c(c2)CCN(C[C@H](O)CN2CCc4ccccc4C2)C3=O)CC1` [Example 101, 4-[2-[(2R)-3-(3,4-dihydro-1H-isoquinolin-2-yl)-2-hydroxy-propyl]-1-oxo-3,4-dihydroisoquinolin-6-yl]piperazine-1-carbonitrile]: the IC50 was in the range of 1 to 100 nM.

Compound `O=C1c2ccc(N3CCOC3)cc2CCN1C[C@H](O)CN1CCc2ccccc2C1` [Example 39, 2-[(2R)-3-(3,4-dihydro-1H-isoquinolin-2-yl)-2-hydroxy-propyl]-6-oxazolidin-3-yl-3,4-dihydroisoquinolin-1-one] showed an IC50 of 100 to 1000 nM.

Consider `O=C1c2ccc(N3CCCC3=O)cc2CCN1C[C@H](O)CN1CCc2ccccc2C1` [Example 18, 2-[(2R)-3-(3,4-dihydro-1H-isoquinolin-2-yl)-2-hydroxy-propyl]-6-(2-oxopyrrolidin-1-yl)-3,4-dihydroisoquinolin-1-one], for which the IC50 was in the range of 1000 to 10000 nM.

`CCN1CCC(Oc2ccc3c(c2)CCN(C[C@H](O)CN2CCc4ccccc4C2)C3=O)C1` (stereo partly drawn) [Example 134, 2-[(2R)-3-(3,4-dihydro-1H-isoquinolin-2-yl)-2-hydroxy-propyl]-6-(1-ethylpyrrolidin-3-yl)oxy-3,4-dihydroisoquinolin-1-one] showed an IC50 of 100 to 1000 nM.

For the compound `CCN1CCC(Oc2ccc3c(c2)CCN(C[C@H](O)CN2CCc4ccccc4C2)C3=O)CC1` [Example 114, 2-[(2R)-3-(3,4-dihydro-1H-isoquinolin-2-yl)-2-hydroxy-propyl]-6-[(1-ethyl-4-piperidyl)oxy]-3,4-dihydroisoquinolin-1-one], the IC50 fell in the range of 100 to 1000 nM.

Compound `CC(=O)N1CCN(c2ccc3c(n2)CCN(C[C@H](O)CN2CCc4ccccc4C2)C3=O)CC1` [Example 88, 2-(4-acetylpiperazin-1-yl)-6-[(2R)-3-(3,4-dihydro-1H-isoquinolin-2-yl)-2-hydroxy-propyl]-7,8-dihydro-1,6-naphthyridin-5-one] returned an IC50 of 1 to 100 nM.

For `C[C@H]1CN(c2ccc3c(c2)CCN(C[C@H](O)CN2CCc4ccccc4C2)C3=O)CCO1` [Example 47, 2-[(2R)-3-(3,4-dihydro-1H-isoquinolin-2-yl)-2-hydroxy-propyl]-6-[(2S)-2-methylmorpholin-4-yl]-3,4-dihydroisoquinolin-1-one], the IC50 was in the range of 1 to 100 nM.

`O=C1c2ccc(NCc3cccnc3)cc2CCN1C[C@H](O)CN1CCc2ccccc2C1` [Example 22, 2-[(2R)-3-(3,4-dihydro-1H-isoquinolin-2-yl)-2-hydroxy-propyl]-6-(3-pyridylmethylamino)-3,4-dihydroisoquinolin-1-one]: the half-maximal inhibitory concentration (IC50) fell in the range of 1000 to 10000 nM.

In the case of `CC(C)(C)OC(=O)N1CCC(c2ccc3c(c2)CCN(C[C@H](O)CN2CCc4ccccc4C2)C3=O)CC1` [Example 63, tert-butyl 4-[2-[(2R)-3-(3,4-dihydro-1H-isoquinolin-2-yl)-2-hydroxy-propyl]-1-oxo-3,4-dihydroisoquinolin-6-yl]piperidine-1-carboxylate], the IC50 was 100 to 1000 nM.

`O=C1c2ccc(NCc3ccncc3)cc2CCN1C[C@H](O)CN1CCc2ccccc2C1` [Example 10, 2-[(2R)-3-(3,4-dihydro-1H-isoquinolin-2-yl)-2-hydroxy-propyl]-6-(4-pyridylmethylamino)-3,4-dihydroisoquinolin-1-one] returned an IC50 of 1 to 100 nM.

Compound `O=C(CN1CCOCC1)Nc1ccc2c(c1)CCN(C[C@H](O)CN1CCc3ccccc3C1)C2=O` [Example 33, N-[2-[(2R)-3-(3,4-dihydro-1H-isoquinolin-2-yl)-2-hydroxy-propyl]-1-oxo-3,4-dihydroisoquinolin-6-yl]-2-morpholino-acetamide] gave an IC50 of 1 to 100 nM.

In turn, `O=C1c2ccc(N3CCN4C(=O)OCC4C3)cc2CCN1C[C@H](O)CN1CCc2ccccc2C1` (stereo partly drawn) [Example 94, 7-[2-[(2R)-3-(3,4-dihydro-1H-isoquinolin-2-yl)-2-hydroxy-propyl]-1-oxo-3,4-dihydroisoquinolin-6-yl]-5,6,8,8a-tetrahydro-1H-oxazolo[3,4-a]pyrazin-3-one] showed an IC50 of 1 to 100 nM.

As to `CN1CCCN(c2ccc3c(c2)CCN(C[C@H](O)CN2CCc4ccccc4C2)C3=O)CC1=O` [Example 79, 2-[(2R)-3-(3,4-dihydro-1H-isoquinolin-2-yl)-2-hydroxy-propyl]-6-(4-methyl-3-oxo-1,4-diazepan-1-yl)-3,4-dihydroisoquinolin-1-one], the IC50 was 1 to 100 nM.

The compound `O=C1c2ccc(NCC3CCNCC3)cc2CCN1C[C@H](O)CN1CCc2ccccc2C1` [Example 31, 2-[(2R)-3-(3,4-dihydro-1H-isoquinolin-2-yl)-2-hydroxy-propyl]-6-(4-piperidylmethylamino)-3,4-dihydroisoquinolin-1-one] came in with an IC50 of 1 to 100 nM.

For the compound `CC(=O)N1CC=C(c2ccc3c(c2)CCN(C[C@H](O)CN2CCc4ccccc4C2)C3=O)CC1` [Example 61, 6-(1-acetyl-3,6-dihydro-2H-pyridin-4-yl)-2-[(2R)-3-(3,4-dihydro-1H-isoquinolin-2-yl)-2-hydroxy-propyl]-3,4-dihydroisoquinolin-1-one], the IC50 was in the range of 1 to 100 nM.

Regarding `CCN1CCC(COc2ccc3c(c2)CCN(C[C@H](O)CN2CCc4ccccc4C2)C3=O)CC1` [Example 115, 2-[(2R)-3-(3,4-dihydro-1H-isoquinolin-2-yl)-2-hydroxy-propyl]-6-[(1-ethyl-4-piperidyl)methyloxy]-3,4-dihydroisoquinolin-1-one], the IC50 is 100 to 1000 nM.

In the case of `CC(=O)N1CCN(c2ccc3c(c2)CCN(C[C@H](O)CN2CCc4ccccc4C2)C3=O)C(=O)C1` [Example 86, 6-(4-acetyl-2-oxo-piperazin-1-yl)-2-[(2R)-3-(3,4-dihydro-1H-isoquinolin-2-yl)-2-hydroxy-propyl]-3,4-dihydroisoquinolin-1-one], the IC50 lay within 100 to 1000 nM.

Compound `O=C1c2ccc(CN3CCCOCC3)cc2CCN1C[C@H](O)CN1CCc2ccccc2C1` [Example 54, 2-[(2R)-3-(3,4-dihydro-1H-isoquinolin-2-yl)-2-hydroxy-propyl]-6-(1,4-oxazepan-4-ylmethyl)-3,4-dihydroisoquinolin-1-one] registered an IC50 of 1 to 100 nM.

Compound `CC(=O)Nc1ccc2c(c1)CCN(C[C@H](O)CN1CCc3ccccc3C1)C2=O` [Example 42, N-[2-[(2R)-3-(3,4-dihydro-1H-isoquinolin-2-yl)-2-hydroxy-propyl]-1-oxo-3,4-dihydroisoquinolin-6-yl]acetamide] gave an IC50 of 100 to 1000 nM.

As for `O=C1c2ccc(N3CCn4ccnc4C3)cc2CCN1C[C@H](O)CN1CCc2ccccc2C1` [Example 102, 6-(6,8-dihydro-5H-imidazo[1,2-a]pyrazin-7-yl)-2-[(2R)-3-(3,4-dihydro-1H-isoquinoline-2-yl)-2-hydroxy-propyl]-3,4-dihydroisoquinolin-1-one], the IC50 was in the range of 1 to 100 nM.

In turn, `O=C1c2ccc(N3CC4CC3CN4)cc2CCN1C[C@H](O)CN1CCc2ccccc2C1` (stereo partly drawn) [Example 76, 6-(2,5-diazabicyclo[2.2.1]heptan-2-yl)-2-[(2R)-3-(3,4-dihydro-1H-isoquinolin-2-yl)-2-hydroxy-propyl]-3,4-dihydroisoquinolin-1-one] yielded an IC50 of 100 to 1000 nM.

Turning to `CC(C)(C)OC(=O)N1CC2CC1CN2c1ccc2c(c1)CCN(C[C@H](O)CN1CCc3ccccc3C1)C2=O` (stereo partly drawn) [Example 72, tert-butyl 5-[2-[(2R)-3-(3,4-dihydro-1H-isoquinolin-2-yl)-2-hydroxy-propyl]-1-oxo-3,4-dihydroisoquinolin-6-yl]-2,5-diazabicyclo[2.2.1]heptane-2-carboxylate], the IC50 fell in the range of 100 to 1000 nM.
